Publication PMC5007552, “The hVps34‐SGK3 pathway alleviates sustained PI3K/Akt inhibition by stimulating mTORC1 and tumour growth” (The EMBO Journal, 2016)

What was measured:
SGK3 [1] = biological target: T1, SGK3 (Homo sapiens, UniProt Q96BR1); experiment: Immunoprecipitated endogenous SGK3 kinase activity (Crosstide) and SGK3 phosphorylation from treated cells; assay type: cell-based; set-up: we immunoprecipitated endogenous SGK3 and assessed protein kinase activity; endogenous in cells; host or cells: ZR-75-1; settings: 1 h, ZR-75-1 cells
T1 sequence (Q96BR1 1-496): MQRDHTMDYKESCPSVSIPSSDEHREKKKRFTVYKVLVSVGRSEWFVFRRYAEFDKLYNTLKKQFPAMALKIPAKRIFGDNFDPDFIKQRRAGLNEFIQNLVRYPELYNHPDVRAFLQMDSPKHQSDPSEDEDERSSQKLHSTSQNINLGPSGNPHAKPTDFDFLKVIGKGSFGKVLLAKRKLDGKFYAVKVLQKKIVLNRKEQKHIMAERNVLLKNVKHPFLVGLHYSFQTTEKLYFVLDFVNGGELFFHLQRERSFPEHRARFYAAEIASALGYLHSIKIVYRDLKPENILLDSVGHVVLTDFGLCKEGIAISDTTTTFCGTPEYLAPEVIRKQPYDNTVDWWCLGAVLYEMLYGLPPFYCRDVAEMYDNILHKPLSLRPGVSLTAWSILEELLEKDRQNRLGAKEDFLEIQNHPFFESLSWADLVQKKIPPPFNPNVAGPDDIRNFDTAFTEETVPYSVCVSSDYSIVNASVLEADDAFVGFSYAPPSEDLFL
Description: (§1) Briefly, SGK3, Akt and S6K1 were immunoprecipitated from 1 mg ZR‐75‐1 cell lysate. Immunoprecipitates were washed in sequence with lysis buffer containing high salt concentration (500 mM NaCl), lysis buffer and Buffer A (50 mM Tris pH 7.5, 0.1 mM EGTA). Kinase activity was assessed by measuring [γ‐^32P]ATP incorporation into Crosstide substrate peptide [[…]]. The reactions were carried in 40 μl total volume containing 0.1 mM [γ‐^32P]ATP (400–1,000 cpm/pmol), 10 mM magnesium acetate and 30 μM Crosstide peptide. Reactions were terminated by adding 10 μl 0.1 M EDTA and spotting 40 μl of the resulting reaction mix on P81 paper, which were immediately immersed into 50 mM orthophosphoric acid. Papers were washed at least five times in 50 mM orthophosphoric acid, rinsed in acetone and air‐dried. Radioactivity was quantified by Cerenkov counting. One unit of enzyme activity was defined as amount of enzyme that catalyses incorporation of 1 nmol of [γ‐^32P]ATP into the substrate over 1 min.

SGK3 [2] = biological target: T1, SGK3; experiment: IC50 on recombinant SGK3; assay type: biochemical; settings: recombinant kinase
Description: (§2) The result for each kinase is presented as a mean kinase activity of the reaction taken in triplicate relative to a control reaction where the inhibitors were omitted. […] SGK3 was immunoprecipitated from cell lysates and subjected to in vitro kinase assay by measuring phosphorylation of the Crosstide substrate peptide in the presence of 0.1 mM [γ‐^32P]ATP in a 30 min 30°C reaction (upper panel). Kinase reactions are presented as means ± SD for triplicate reaction.
(§3) Appendix Figure S1. […] (A) Chemical struc tures of
(§4) Sano/f_i-14g, -14i and -14n compounds. (B) IC50 values of inhibitors on indicated recombinant k inases. […]

MLK3 = MLK3 (Homo sapiens, UniProt Q16584); experiment: IC50 on recombinant MLK3; assay type: biochemical; settings: Fig 5B / Appendix Fig S1B, recombinant kinase, unit inferred
MLK3, sequence (Q16584 whole entry, species assumed): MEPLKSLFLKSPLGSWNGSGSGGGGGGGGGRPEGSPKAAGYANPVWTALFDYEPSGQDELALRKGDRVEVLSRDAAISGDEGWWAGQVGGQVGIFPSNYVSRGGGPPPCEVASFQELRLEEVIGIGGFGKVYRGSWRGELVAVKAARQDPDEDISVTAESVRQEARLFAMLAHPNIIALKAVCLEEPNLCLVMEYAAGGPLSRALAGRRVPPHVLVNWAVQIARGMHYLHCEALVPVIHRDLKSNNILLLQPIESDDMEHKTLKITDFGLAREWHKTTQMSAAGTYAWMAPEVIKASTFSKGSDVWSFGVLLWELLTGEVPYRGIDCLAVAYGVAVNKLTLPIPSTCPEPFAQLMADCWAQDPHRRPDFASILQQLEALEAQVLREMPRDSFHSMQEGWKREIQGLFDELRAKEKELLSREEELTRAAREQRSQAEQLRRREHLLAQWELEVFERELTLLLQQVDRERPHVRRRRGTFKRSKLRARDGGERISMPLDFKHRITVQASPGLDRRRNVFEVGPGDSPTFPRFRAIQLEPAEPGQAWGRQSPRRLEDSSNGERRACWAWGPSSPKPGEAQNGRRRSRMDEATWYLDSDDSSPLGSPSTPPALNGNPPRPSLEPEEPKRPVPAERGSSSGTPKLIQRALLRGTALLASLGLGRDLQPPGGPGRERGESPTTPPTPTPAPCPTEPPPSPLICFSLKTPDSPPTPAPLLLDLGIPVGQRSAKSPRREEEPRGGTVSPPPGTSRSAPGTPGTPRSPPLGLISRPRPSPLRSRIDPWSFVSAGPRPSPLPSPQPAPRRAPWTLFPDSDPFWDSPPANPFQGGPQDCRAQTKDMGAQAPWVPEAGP
Description: as §2, §3, §4

S6K1 = experiment: Immunoprecipitated S6K1 kinase activity (Crosstide) from treated ZR-75-1 cells; assay type: cell-based, human; settings: 1 μM MK-2206, 1 h
Description: SGK3 (upper panel) and S6K1 (middle panel) were immunoprecipitated and subjected to in vitro kinase assay by measuring phosphorylation of the Crosstide substrate peptide in the presence of 0.1 mM [γ‐^32P]ATP in a 30 min 30°C reaction. Kinase reactions are presented as means ± SD for triplicate reaction. Immunoprecipitates (IP) were also analysed by immunoblot with the indicated antibodies. The cell lysates were also analysed by immunoblot using the indicated antibodies (lower panel).
as §1, with “One unit of enzyme activity was defined as amount of enzyme that catalyses incorporation of 1 nmol of [γ‐^32P]ATP into the substrate over 1 min.” left out

Structure (SMILES) | reduction of SGK3 activity and phosphorylation (SGK3 [1]; 0.1 μM 14h) | SGK3 activity and phosphorylation (SGK3 [1]; 1 μM 14h) | IC50 (SGK3 [2]) | IC50 (MLK3) | reduction of S6K1 activity (S6K1)
Nc1n[nH]c2nc(-c3ccc(NS(=O)(=O)c4cc(Cl)ccc4Cl)cc3)cnc12 [14h] | ~ 80% | undetectable | 4 nM | 84 nM | 
NC1(c2ccc(-c3nc4ccn5c(=O)[nH]nc5c4cc3-c3ccccc3)cc2)CCC1 [MK-2206] |  |  |  |  | ~ 10 fold
